Data: patent publication US6482939B1, “Form vi 5,6-dichloro-2-(isopropylamino)-1-(β-l-ribofuranosyl)-1h-bezimimidazole” (SmithKline Beecham Corporation, priority 1998, dated 2002)

How the values were obtained:
Format in all cases: physicochemical
[1] = Total volatile content by thermogravimetric analysis (TGA); conditions: TA Instruments Hi-Res TGA 2950 thermogravimetric analyzer (FIG. 7)
Procedure: Accordingly, in a second aspect of the present invention there is provided the compound of formula (I) form VI, having a total volatile content of not more than 0.3% by weight (w/w) as determined by a TA Instruments Hi-Res TGA 2950 thermogravimetric analyzer (FIG. 7).
Differential scanning calorimetry (DSC) was performed on a TA Instruments DSC 2920 Differential Scanning Calorimetor equipped with a DSC auto sampler. Samples of 1 to 3 mg were crimped in standard aluminum pans with holes and heated from 25° C. to 250° C. at a rate of 10° C./minute under nitrogen purge. The percentage of total weight loss of the drug substance was determined on a TA Instruments Hi-Res TGA 2950 thermogravimetric analyzer (TGA) with a nitrogen purge.

[2] = Thermodynamic stability among crystalline forms
[3] = Gravimetric water vapor sorption (moisture sorption isotherm)
Procedure: Moisture adsorption/desorption studies were conducted on a VTI vacuum microbalance at 25° C. after drying the sample at 60° C. under vacuum. Moisture adsorption was monitored under vacuum from 0 to 95% relative humidity and desorption was monitored from 95% down to 5% relative humidity. The criteria for equilibrium at a given relative humidity was less than 3 μg of weight change in 18 minutes.

[4] = Stability samples stored at elevated temperature/relative humidity, examined for crystal form; conditions: 80° C./50% RH, 60° C./75% RH, 60° C./50% RH and 40° C./75% RH, sealed conditions, 2 months

CC(C)Nc1nc2cc(Cl)c(Cl)cc2n1[C@H]1O[C@@H](CO)[C@H](O)[C@@H]1O [Form VI, 5,6-dichloro-2-(isopropylamino)-1-(β-L-ribofuranosyl)-1H-benzimidazole]
total volatile content [1]: not more than 0.3 % by weight (w/w)
thermodynamic stability relative to other forms [2]: most thermodynamically stable form
hygroscopicity [3]: essentially non-hygroscopic
water absorbed ([3]; equilibrated up to 95% relative humidity at ambient temperature (FIG. 8)): 0.3%

CC(C)Nc1nc2cc(Cl)c(Cl)cc2n1[C@H]1O[C@@H](CO)[C@H](O)[C@@H]1O [ethanolate, 5,6-dichloro-2-(isopropylamino)-1-(β-L-ribofuranosyl)-1H-benzimidazole]
solid form stability on storage (conversion of crystal form) [4]: partially or completely converted to Form VI
